Measured values reported in publication PMC10527105, “Chirality Matters: Fine-Tuning of Novel Monoamine Reuptake Inhibitors Selectivity through Manipulation of Stereochemistry” (Biomolecules, 2023).

How the values were obtained:
[1] = test system: extracellular DA levels in the hippocampus; test: In vivo micro-dialysis in freely moving mice; design: species or system C57BL76J mice; conditions: for treatment effect on extracellular DA levels in hippocampus: 1 mg/kg i.p., experimental day 1; for time course of extracellular DA levels after the peak / increase of extracellular DA levels in hippocampus: 10 mg/kg i.p.; for time course of extracellular DA levels after the peak: experimental day 2; for increase of extracellular DA levels in hippocampus: experimental day 2, within 20 min of administration, relative to baseline
Experimental: Male, adult C57BL76J mice (Janvier-Labs, Saint Berthevin, France) were group-housed in individually ventilated cages under standard laboratory conditions (temperature 22 ± 2 °C, humidity 45–65%, with a 12:12 h light-dark cycle lights on at 07:00 h). Animals had free access to food and water. All experimental procedures were approved by the Austrian Animal Experimentation Ethical Committee (Bundesministerium für Wissenschaft, Forschung und Wirtschaft, Kommission für Tierversuchsangelegenheiten) in compliance with international laws and policies.
Under isoflurane anesthesia (at 5% and 1.5% for induction and maintenance, respectively), a commercially available guide cannula (MAB 4.15 with OD 0.48 mm and ID 0.35 mm, Microbiotech, Stockholm, Sweden) was implanted above the right hippocampus (AP = −2.1 mm, ML = +1.5 mm, DV = −0.7 mm from Bregma) and closed with a dummy probe as described previously. After surgery, animals received buprenorphine (0.5 mg/kg s.c.) and meloxicam (1.0 mg/kg p.o. via the drinking water) for analgesic care. They were allowed to recover for 5–7 days while being single-housed and habituated to the experimenter and experimental procedures. On the day before the experiment, the dummy was replaced by a microdialysis probe (MAB 4.15.1 PES, Microbiotech, Sweden) that extended the guide cannula by 1 mm, thus reaching into the dorsal hippocampus. Microdialysis probes were connected to a microinfusion pump (CMA, Stockholm, Sweden) and a swivel-tether system via polyethylene tubing. Probes were constantly superfused with artificial cerebrospinal fluid (aCSF); consisting of in mM: 140 NaCl, 3.0 KCl, 1.2 CaCl2, 1.0 MgCl2, 1.0 Na2HPO4, pH 7.4, at a flow rate of 0.5 µL/min overnight and 1.0 µL/min during sample collection, respectively. Microdialysis fractions were collected every 20 min in pre-cooled microtubes containing antioxidative protection solution (in mM: 0.27 Na2EDTA, 100 acetic acid, 0.0125 ascorbic acid), vortexed, and immediately frozen at −80 °C until further analysis. At any time, the dead volumes generated by the inlet and outlet systems were considered to cause a temporal delay in fraction collection.
On experimental day 1, vehicle (30% Kolliphor EL) or one of the two enantiomers -7h and 8h (1 mg/kg) was administered i.p. after six baseline samples, and another 12 samples were collected. On experimental day 2, the collection of dialysates was resumed. Again, 6 baseline samples and 12 samples after the administration of either vehicle (30% Kolliphor EL) or 7h/8h (10 mg/kg) were collected. At the end of the experiment, microdialysis probes were superfused with high (100 mM) depolarizing concentrations of potassium (K^+) containing aCSF in order to elicit local […] for testing the functionality of the microdialysis system. Thereafter, animals were euthanized with an overdose of thiopental, decapitated, and their brains removed. The localization of the microdialysis probe was verified by observing cresyl violet-stained coronal sections (40 µm) under a light microscope. Three animals were removed from the analysis due to misplaced probes.
Quantification of dopamine in microdialysates. The quantification of dopamine in microdialysates was performed using a high-performance liquid chromatography (HPLC) system for electrochemical detection, as previously described. The HPLC system consisted of a Shimadzu (Kyoto, Japan) system controller (CBM-20A), a degassing unit (DGU-20A3R), and a micro HPLC pump (LC-20AD) operating at a flow rate of 55 µL/min. Microdialysis samples (5 µL) were injected via a SIL-20ACHT autosampler (Shimadzu, Japan) and separated on a C18 reversed-phase column (Inertsil ODS-3; 50 mm × 1.0 mm ID; 3 µm particle sizes, GL Sciences Inc., Tokyo, Japan) placed in a DECADE II electrochemical detector equipped with an amperometric flow cell (Antec, Zoeterwoude, The Netherlands). […]

[2] = molecular target: T1, human NET (Homo sapiens, UniProt P23975); test: Radioligand binding assay, [3H]nisoxetine, CHO cells (Eurofins Cerep); conditions: human NET expressed in CHO cells; read-out: Ki, binding sites of the NET (against [3H]nisoxetine)
T1 construct: host or cells: CHO
T1 sequence (P23975 whole entry): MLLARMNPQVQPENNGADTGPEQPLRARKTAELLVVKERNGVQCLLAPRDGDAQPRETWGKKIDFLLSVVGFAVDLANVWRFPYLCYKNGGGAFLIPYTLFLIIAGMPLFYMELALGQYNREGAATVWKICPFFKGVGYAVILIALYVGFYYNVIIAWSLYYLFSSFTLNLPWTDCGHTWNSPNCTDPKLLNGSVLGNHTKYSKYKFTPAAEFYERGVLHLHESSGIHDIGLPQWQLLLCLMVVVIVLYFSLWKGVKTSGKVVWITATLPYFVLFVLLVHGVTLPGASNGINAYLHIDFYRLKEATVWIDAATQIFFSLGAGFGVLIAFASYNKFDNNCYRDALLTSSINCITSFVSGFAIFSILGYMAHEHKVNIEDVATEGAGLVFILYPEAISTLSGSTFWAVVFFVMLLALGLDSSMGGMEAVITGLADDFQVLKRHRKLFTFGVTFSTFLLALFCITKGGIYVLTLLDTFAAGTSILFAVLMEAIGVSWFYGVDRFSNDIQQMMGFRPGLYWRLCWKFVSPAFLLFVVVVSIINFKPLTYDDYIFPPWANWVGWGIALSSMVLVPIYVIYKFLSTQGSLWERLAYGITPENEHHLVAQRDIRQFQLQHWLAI
Experimental: (§1) Binding experiments. Binding affinity to the human DAT, SERT, and NET stable proteins expressed in CHO cells was evaluated in in vitro radioligand binding assays. Non-specific binding was determined using [^3H]BTCP, [^3H]imipramine, and ^[3H] nisoxetine for hDAT, hSERT, and hNET, respectively. The IC50 values were calculated by non-linear regression analysis of the competition curves generated from the mean replicate values. The Ki values were calculated using the Cheng–Prusoff equation (Ki = IC50/(1 + […])). Binding assays were carried out by Eurofins (Cerep SA, Celle l’Evescault, France), Study No. 100053935. For an in-depth description, please refer to the report in the supporting information file.

[3] = molecular target: T2, human SERT (Homo sapiens, UniProt P31645); test: Radioligand binding assay, [3H]imipramine, CHO cells (Eurofins Cerep); conditions: human SERT expressed in CHO cells; read-out: Ki, binding sites of the SERT (against [3H]imipramine)
T2 construct: host or cells: CHO
T2 sequence (P31645 whole entry): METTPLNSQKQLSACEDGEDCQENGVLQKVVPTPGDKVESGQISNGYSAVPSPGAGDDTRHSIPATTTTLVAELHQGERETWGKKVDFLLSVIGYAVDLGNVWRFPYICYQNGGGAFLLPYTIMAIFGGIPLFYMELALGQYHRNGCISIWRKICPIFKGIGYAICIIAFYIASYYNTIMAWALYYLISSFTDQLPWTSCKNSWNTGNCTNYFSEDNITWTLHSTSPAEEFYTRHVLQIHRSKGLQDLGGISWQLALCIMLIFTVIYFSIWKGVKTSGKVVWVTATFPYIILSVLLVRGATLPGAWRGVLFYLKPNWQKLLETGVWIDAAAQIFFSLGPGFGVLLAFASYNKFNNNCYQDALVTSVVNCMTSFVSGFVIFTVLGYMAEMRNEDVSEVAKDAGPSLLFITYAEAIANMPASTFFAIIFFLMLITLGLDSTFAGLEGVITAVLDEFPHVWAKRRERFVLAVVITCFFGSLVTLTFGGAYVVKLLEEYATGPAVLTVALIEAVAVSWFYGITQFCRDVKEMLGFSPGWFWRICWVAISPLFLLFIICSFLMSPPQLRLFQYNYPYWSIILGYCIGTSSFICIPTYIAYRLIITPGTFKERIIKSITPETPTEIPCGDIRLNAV
Experimental: as §1

[4] = molecular target: T3, human dopamine transporter/SLC6A3 (DAT) (Homo sapiens, UniProt Q01959); test: Cellular uptake experiments: [3H]-dopamine reuptake inhibition in transporter-expressing HEK293 cells; format: cell-based; conditions: Reuptake Inhibition (IC50 ± SE, µM) DAT, cells stably expressing DAT; [3H]-dopamine 1 µM; screening cut-off 50 µM
T3 construct: expressed in transfected cells; host or cells: HEK293
T3 sequence (Q01959 whole entry): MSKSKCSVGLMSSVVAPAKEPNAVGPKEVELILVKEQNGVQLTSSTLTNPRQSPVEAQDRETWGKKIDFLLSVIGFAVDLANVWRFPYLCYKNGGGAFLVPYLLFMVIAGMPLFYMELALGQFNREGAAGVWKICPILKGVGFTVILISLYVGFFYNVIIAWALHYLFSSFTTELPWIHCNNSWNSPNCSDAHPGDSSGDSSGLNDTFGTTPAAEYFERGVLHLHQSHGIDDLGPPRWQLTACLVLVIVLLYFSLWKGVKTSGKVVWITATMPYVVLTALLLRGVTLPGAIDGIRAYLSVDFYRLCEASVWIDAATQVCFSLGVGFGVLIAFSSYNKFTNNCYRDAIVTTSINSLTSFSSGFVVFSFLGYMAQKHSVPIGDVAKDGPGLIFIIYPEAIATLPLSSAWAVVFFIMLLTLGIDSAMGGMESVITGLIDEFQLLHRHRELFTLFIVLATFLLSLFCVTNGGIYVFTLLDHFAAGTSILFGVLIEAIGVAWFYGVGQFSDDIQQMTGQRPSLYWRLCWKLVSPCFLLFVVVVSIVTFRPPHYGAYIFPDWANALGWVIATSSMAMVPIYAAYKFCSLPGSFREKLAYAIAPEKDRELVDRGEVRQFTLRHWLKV
Procedure, shortened: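 Stably transfected HEK293 cells preincubated 5 min with compound, then 1 µM [3H]-substrate for 2.5 min (SERT: 5 min) at 25 °C, pH 7.1 buffer; uptake counted by scintillation. Nonspecific uptake defined with 10 µM mazindol (DAT, NET) or 10 µM clomipramine (SERT).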

| SMILES | treatment effect on extracellular DA levels in hippocampus [1] | time course of extracellular DA levels after the peak [1] | increase of extracellular DA levels in hippocampus [1] | Ki [2] [µM] | Ki [3] [µM] | IC50 [4] [µM] |
| --- | --- | --- | --- | --- | --- | --- |
| [O-][S@@+](Cc1cccs1)[C@@H](c1ccccc1)c1cccc(Br)c1 [Compound 7h, (S,S)-2-((((3-bromophenyl)(phenyl)methyl)sulfinyl)methyl)thiophene] | no treatment effect | remained elevated throughout a 2 h time period | approximately 35% | > 10 | > 10 | 0.48 ± 0.11 |
| [O-][S@+](Cc1cccs1)[C@H](c1ccccc1)c1cccc(Br)c1 [Compound 8h, (R,R)-2-((((3-bromophenyl)(phenyl)methyl)sulfinyl)methyl)thiophene] | no treatment effect | constantly declined from the peak values | approximately 35% | > 10 | > 10 | 0.3 ± 0.03 |
